Laboratory results published in patent US20200155490A1, “IMMUNOMOUDULATORY AGENTS AND METHODS OF USE THEREOF” (priority 2016, published 2020).
Entries after “also recorded” stand apart in the source; their conditions may differ.

Assays:
[1] = system: bone marrow-derived macrophage (BMDM); experiment: Activation of BMDM with LPS or LPS+IFN-γ (cytokines, iNOS, HIF-1α); assay type: cell-based, mouse
Protocol: Cells were incubated with FcγR-blocking anti-CD16/32 (clone 93, Biolegend) before staining with antibodies to F4/80 (clone BM8, eBioscience) and CD11b (clone M1/70; BD Pharmingen) together with LIVE/DEAD dye (Invitrogen). […] Cells were acquired on a Canto II flow cytometer (BD Biosciences) and data were analyzed using FlowJo v.9.5.2 software (Tree Star).
(§1) The concentration of cytokines in culture supernatants was determined using the following kits according to manufacturer's instructions. DuoSet® kits for mouse IL-1β/IL-1F2, TNF-α and IL-6 (all R&D systems); mouse IL-12 ELISA MAX™ Deluxe Set (BioLegend); mouse IL-18 ELISA kit (MBL). Nitric oxide was quantified using Griess Reagent System (Promega).
(§2) BMDM were stimulated as indicated, washed with PBS, lysed in RIPA Lysis Buffer System (Santa Cruz) and boiled in sample loading buffer containing SDS and 100 mM DTT. Proteins were separated by electrophoresis through 4-20% polyacrylamide gradient gels (BioRad). After electrophoretic transfer of proteins onto PVDF membranes, nonspecific binding was blocked by incubation with 5% skim milk and membranes were probed with primary antibodies anti-IL1β (1:1000 dilution; 12507S, CellSignaling), NIrp3 (1:500 dilution; NBP2-12446, Novus), HIF-1α (1:500 dilution; NB100-449, Novus), α-tubulin (1:2000 dilution; 2125S, CellSignaling), ASC (1:1000 dilution; sc-22514-R, Santa Cruz) followed by incubation with secondary antibodies (horseradish peroxidase-conjugated anti-rabbit, 1:10,000 dilution; sc-2030, Santa Cruz) and visualized with Clarity™ western ECL substrate (Biorad).

[2] = system: NLRP3 inflammasome in BMDM; experiment: NLRP3 inflammasome activation in BMDM (LPS priming + ATP, nigericin or MSU); assay type: cell-based, mouse; details: for production of IL-18: then ATP 3 mM 45 min; for protein expression of pro-IL-1β: 0.25 mM 12 h
Protocol: as §1, §2

[3] = system: AIM2-inflammasome in BMDM; experiment: AIM2-inflammasome activation in BMDM (poly dA:dT transfection); assay type: cell-based, mouse; details: DI 12 h, 5 h
Protocol: as §1

[4] = system: BMDM infected with S. typhimurium; experiment: In vitro infection of BMDM with Salmonella typhimurium; assay type: cell-based, mouse
unstimulated BMDM = experiment: Extracellular flux analysis (Seahorse); assay type: cell-based, mouse; details: 0.25 mM DI 12 h
Protocol: Extracellular acidification rate (ECAR) and Oxygen Consumption rate (OCR) were measured in real time using Seahorse technology as described previously.

[5] = system: myocardial ischemia-reperfusion injury; experiment: Myocardial ischemia-reperfusion model; assay type: in vivo, mice; details: for myocardial infarct size: 30 min ischemia, 2 h reperfusion, intravenous infusion during ischemia
Protocol: In vivo ischemia-reperfusion modeling was performed as previously described. 8 to 10 week-old mice were anesthetized and subjected to an open chest procedure of reversible left anterior descending artery ligation for 30 min and subsequent reperfusion for 2 hours. Saline or DI (4 mg/Kg/min) was infused intravenously for 10 min before and throughout the ischemic period. A cardioplegic solution followed by TTC at 37° C. and then Evans Blue (after reocclusion of the LAD) was injected in a retrograde manner through the aorta in situ. The left ventricle was then sectioned into 5 slices and image analysis was performed with Image J (NIH).

[6] = system: mitochondrial ROS in BMDM; experiment: Measurement of mROS (MitoSOX) in BMDM; assay type: cell-based, mouse; details: 0.25 mM 12 h, LPS 100 ng/ml; MitoSOX flow cytometry
Protocol: Cells were incubated with DI (0.25 mM, 12 h) or vehicle and then loaded with 5 μM of the mitochondrial superoxide indicator MitoSOX (Invitrogen) at 37° C. for 30 min in HBSS supplemented with 0.1% BSA. Cells were then rinsed with warm culture medium and LPS treatment was started 1 h later. Cells were harvested and analyzed on a Canto II flow cytometer (Becton-Dickinson).

[7] = system: bone-marrow derived macrophages; experiment: Cell viability of bone-marrow derived macrophages; assay type: cell-based, mouse
Protocol: Live cells were determined via flow cytometry using a live/dead cell fluorescent dye. Shown are representative data from three independent experiments.
Cells were incubated with FcγR-blocking anti-CD16/32 (clone 93, Biolegend) before staining with antibodies to F4/80 (clone BM8, eBioscience) and CD11b (clone M1/70; BD Pharmingen) together with LIVE/DEAD dye (Invitrogen). Intracellular iNOS was detected with mouse anti-NOS2 (clone C-11, Santa Cruz Biotechnology) followed by incubation with fluorochrome-conjugated anti-mouse IgG (Clone A85-1, BD Pharmingen) using the BD cytofix/cytoperm Kit (BD Biosciences) according to manufacturer's instructions. Cells were acquired on a Canto II flow cytometer (BD Biosciences) and data were analyzed using FlowJo v.9.5.2 software (Tree Star).

[8] = system: naïve CD4 T cells under Th17 polarizing conditions; experiment: Th17 differentiation of naïve CD4 T cells; assay type: cell-based, C56BL/6 mice; details: for frequency of IL-17-producing cells (Th17 differentiation): Th17 polarizing conditions; for frequency of IL-17-producing cells (Th17 differentiation) / cytotoxic effect (frequency of live CD4 T cells): flow cytometry; for cytotoxic effect (frequency of live CD4 T cells): day 4 after Th17 polarization
Protocol: FIG. 25C is a series of plots showing DI inhibits also the secretion of IL-17 (left) and GM-CSF (right) in the supernatant of CD4 T cells. On day 4 cells were collected, washed, and re-stimulated in equal numbers for each condition with anti-CD3 and anti-CD28. After 24 h supernatants were collected and assayed for IL-17 and GM-CSF by ELISA.

[9] = system: anti-CD3-induced inflammation; experiment: Anti-CD3-induced inflammation in mice (serum IL-17); assay type: in vivo; details: 4 mg or 20 mg DI ip, 48 h after anti-CD3, ELISA
Protocol: FIG. 26A is a plot showing DI-treatment diminished in vivo systemic IL-17 production. Circulating serum IL-17 levels were determined by ELISA 48 h after anti-CD3-induced inflammation in mice treated or not with the indicated doses of DI. Briefly, mice were received intraperitoneal (ip) injections of 4 mg (n=10) or 20 mg (n=5) DI or vehicle (PBS; shown as 0; n=10) 3 h prior (−3 h) to an anti-CD3 injection (given at 0 h ip) and every 20 h thereafter until mice were analyzed at 48 h.

[10] = system: IMQ-induced skin inflammation; experiment: Imiquimod (IMQ)-induced psoriasis model; assay type: in vivo; details: mouse ear skin, 20 mg DI ip daily, IMQ cream 7 days
Protocol: IMQ cream (5%) was applied on mouse ear skin for 7 days and skin pathology was assessed on day 8. Mice received 20 mg DI ip. (DI+IMQ) or vehicle ip (PBS; IMQ) was administered one day prior to IMQ application and every day thereafter until day 7. DI group: received 20 mg DI as above but no IMQ; naïve mice received vehicle as above but no IMQ.

[11] = system: neonatal rat cardiac myocytes; experiment: Hypoxia modeling in neonatal rat cardiac myocytes; details: NRCMs, hypoxia 24 h, DI pretreatment
Protocol: Neonatal rat cardiac myocytes were isolated and cultured as described. Cells were subjected to hypoxia in an oxygen control cabinet (Coy Laboratories, Grass Lake, Mich.) mounted within an incubator and equipped with oxygen controller and sensor for continuous oxygen level monitoring. […] Cell death was assessed with the Live-Dead Cytotoxicity Viability kit for Mammalian cells (Invitrogen) and ROS generation was monitored by flow cytometric assessment of carboxy-H2DCFDA fluorescence (following incubation in 10 μmol/L for 30 minutes), as previously described.

[12] = system: bone marrow-derived macrophage (BMDM); experiment: RNA-seq transcriptional profiling of LPS-stimulated BMDM; details: for pro-inflammatory transcripts / inflammatory markers (Nos2, II6, II12b etc.): 0.25 mM 12 h pretreatment, LPS 100 ng/ml 4 h
[13] = target: T1, succinate dehydrogenase (Sdh) (Mus musculus, UniProt Q8K2B3); experiment: Sdh activity assay (Complex II Enzyme Activity Microplate Assay); assay type: biochemical; details: Sdh purified from BV2 cells or BMDM
T1 construct: Sdh was purified from BV2 cells (a macrophage cell line) or BMDM; endogenous in cells; host or cells: BV2 cells (macrophage cell line) or mouse BMDM; in-well capture with the Abcam Complex II Enzyme Activity Microplate Assay Kit
T1 sequence (Q8K2B3 43-664): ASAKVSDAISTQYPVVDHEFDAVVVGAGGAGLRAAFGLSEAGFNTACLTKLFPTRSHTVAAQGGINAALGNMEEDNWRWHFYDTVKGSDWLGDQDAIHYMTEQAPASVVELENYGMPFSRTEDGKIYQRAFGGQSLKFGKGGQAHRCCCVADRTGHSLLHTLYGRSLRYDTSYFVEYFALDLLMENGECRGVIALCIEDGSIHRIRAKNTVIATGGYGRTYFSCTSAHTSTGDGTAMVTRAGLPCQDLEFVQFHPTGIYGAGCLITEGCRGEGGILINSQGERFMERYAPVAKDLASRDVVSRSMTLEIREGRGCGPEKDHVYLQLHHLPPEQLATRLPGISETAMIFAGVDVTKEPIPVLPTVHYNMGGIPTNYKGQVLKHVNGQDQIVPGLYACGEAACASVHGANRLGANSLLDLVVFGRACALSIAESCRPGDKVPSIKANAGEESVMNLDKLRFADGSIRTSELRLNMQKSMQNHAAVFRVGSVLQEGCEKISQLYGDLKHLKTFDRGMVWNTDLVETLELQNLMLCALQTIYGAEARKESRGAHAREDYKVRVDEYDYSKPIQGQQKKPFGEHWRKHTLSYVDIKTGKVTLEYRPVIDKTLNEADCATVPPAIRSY
T1 sequence (Q9CQA3 31-282 partner): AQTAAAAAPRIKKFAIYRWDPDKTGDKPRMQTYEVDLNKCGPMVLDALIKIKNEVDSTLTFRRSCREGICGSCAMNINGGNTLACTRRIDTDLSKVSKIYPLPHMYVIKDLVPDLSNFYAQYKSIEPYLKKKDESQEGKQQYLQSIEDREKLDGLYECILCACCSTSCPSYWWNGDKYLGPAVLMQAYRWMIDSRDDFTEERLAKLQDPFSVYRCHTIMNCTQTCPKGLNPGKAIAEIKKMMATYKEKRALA
T1 sequence (Q9CZB0 30-169 partner): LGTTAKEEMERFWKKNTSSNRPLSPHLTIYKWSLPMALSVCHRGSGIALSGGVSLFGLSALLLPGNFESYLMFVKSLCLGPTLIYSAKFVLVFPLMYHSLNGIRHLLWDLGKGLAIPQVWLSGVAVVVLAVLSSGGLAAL
T1 sequence (Q9CXV1 57-159 partner): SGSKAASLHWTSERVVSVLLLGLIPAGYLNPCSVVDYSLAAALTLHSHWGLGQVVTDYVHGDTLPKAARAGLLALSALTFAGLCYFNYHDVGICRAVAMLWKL
Protocol: The test compounds were diluted in activity buffer and added to the phospholipid mixture 5 min before adding the activity solution. Absorbance was measured at 600 nm.

[14] = system: Mycobacterium tuberculosis (Mtb) H37Rv in BMDM; experiment: Infection of BMDM with Mycobacterium tuberculosis H37Rv; assay type: cell-based
Protocol: To address this question, BMMDs were infected with Mycobacterium tuberculosis (Mtb) H37Rv strain (MOI of 1). Three treatment groups were set up: untreated macrophages, macrophages pretreated with interferon, and macrophages pretreated with interferon and then treated with itaconate. The infection was then allowed to proceed for 7 days. On day 7 post infection, serial dilutions of infected BMDM homogenates were plated on 7H11 agar plates and colony forming unit (CFU) determined.

Salmonella infection = Salmonella infection in vivo; details: treated vs untreated mice; i.v. administration
[15] = BMDM pretreated with DI (12 h; 0.25 mM), LPS 24 h
[16] = 12 h pretreatment, LPS 100 ng/ml 4 h
[17] = Western blot, LPS 4 h, ATP 45 min
[18] = Western blot, DI 0.25 mM 12 h, LPS 4 h, ATP 45 min
[19] = BMDM pre-treated with 0.25 mM DI 12 h, infected with live S. typhimurium
[20] = day 4 cells re-stimulated with anti-CD3 and anti-CD28, 24 h, ELISA

C=C(CC(=O)OC)C(=O)OC [DI, dimethyl itaconate]
IL-12p70 secretion ([1]; BMDM pretreated with DI 12 h, then LPS and IFN-γ 24 h): suppressed | IL-6 secretion [1, 15]: suppressed | TNF-α production [1, 15]: remained unchanged | iNOS protein expression ([1]; BMDM pretreated with DI (12 h; 0.25 mM), then LPS and IFN-γ 24 h, flow cytometry): suppressed | production of IL-18 [2, 16]: potently inhibited | production of mature IL-1β ([2]; 12 h pretreatment, LPS 100 ng/ml 4 h, then ATP, nigericin or MSU): potently inhibited | inflammasome-induced cytotoxicity ([2]; DI 0.25 mM 12 h, LPS 4 h, ATP 3 mM 45 min, live/dead dye): only moderately | protein expression of pro-IL-1β [2, 17]: decreased | protein expression of ASC [2, 18]: decreased | protein expression of NLRP3 [2, 18]: decreased | IL-1β production following AIM-2-dependent inflammasome activation [3]: impaired | TNF-α levels [4, 19]: only marginally affected | production of IL-1β [4, 19]: virtually abrogated | production of IL-6 [4, 19]: virtually abrogated | production of nitric oxide (NO) [4, 19]: virtually abrogated | number of intracellular bacteria ([4]; DI-treated vs control BMDM, S. typhimurium): comparable | extracellular acidification rate (ECAR) (unstimulated BMDM): increased | area-at-risk ([5]; DI vs saline group): similar | myocardial infarct size ([5]; mice): markedly reduced | reduction in infarct size ([5]; mice, DI 4 mg/Kg/min i.v. 10 min before and throughout ischemia): 42% | LPS-induced upregulation of mROS [6]: impaired | concentration up to which not toxic [7]: up to 0.5 mM | frequency of IL-17-producing cells (Th17 differentiation) [8]: dose-dependently inhibits | cytotoxic effect (frequency of live CD4 T cells) [8]: moderate dose-dependent cytotoxic effect | secretion of GM-CSF [8, 20]: inhibits | secretion of IL-17 [8, 20]: inhibits | in vivo systemic IL-17 production (circulating serum IL-17) [9]: diminished | dermal edema ([10]; H&E day 8): prevents dermal edema | IL-17 associated pathology ([10]; assessed day 8): limits IL-17 associated pathology | hypoxia-induced cell death [11]: dose-dependent protection | hypoxia-induced increase in ROS generation [11]: attenuated | pro-inflammatory transcripts / inflammatory markers (Nos2, II6, II12b etc.) [12]: down-regulation | expression of LPS-regulated genes involved in inflammasome function (II1b, II18, P2rx7, Casp1, Pycard) ([12]; DI 0.25 mM 12 h, LPS 4 h): modulated

COC(=O)CC(=O)OC [dimethyl malonate, reference compound]
production of IL-18 [2, 16]: inhibited

C=C(CC(=O)O)C(=O)O [itaconate, itaconic acid]
protein expression of pro-IL-1β [2, 17]: significantly decreased | activity of purified Sdh [13]: blocked the activity of Sdh in a dose-dependent manner | myocardial infarct size ([5]; mice): reduces infarct size | LPS-induced upregulation of mROS [6]: impaired | bacterial burden in the cells (CFU) ([14]; BMDM pretreated with interferon, Mtb MOI of 1, day 7 post infection): increased | II1b levels in the supernatants ([14]; Mtb-infected BMDM, data not shown): decreased | frequency of IL-17-producing cells (Th17 differentiation) [8]: dose-dependently inhibits | inhibition of Th17 compared with structurally similar dicarboxylic acids ([8]; all acids at 5 mM, day 3 post polarization): structure specific | cytotoxic effect (frequency of live CD4 T cells) [8]: not cytotoxic | mortality from Salmonella infection (Salmonella infection): succumb to Salmonella infection faster; also recorded: significantly accelerates mortality | pro-inflammatory transcripts / inflammatory markers (Nos2, II6, II12b etc.) [12]: significantly decreased

O=C(O)CC(=O)O [malonate, reference compound]
activity of purified Sdh [13]: blocked the activity of Sdh in a dose-dependent manner | myocardial infarct size ([5]; mice): reduces infarct size
